Key:
[1] = test system: alpha-glucosidase (Saccharomyces cerevisiae); assay: Inhibitory activity against alpha-glucosidase of yeast; No inhibition
[2] = test system: Alpha-glucosidase (Saccharomyces cerevisiae); assay: Inhibitory activity against alpha-glucosidase of yeast at a concentration of 0.1 mM

## C[C@@H]1NC[C@@H](CO)[C@@H](O)[C@@H]1O
[1]
  Ki: Not Active
[2]
  inhibition: < 20%

— ChEMBL document CHEMBL1131954, “Homoisofagomines: chemical-enzymatic synthesis and evaluation as alpha- and beta-glucosidase inhibitors” (Bioorg Med Chem Lett, 1999)
